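Briefly, cells in 96-well plates were exposed to five compound concentrations for 48 h, and endpoints were estimated by linear interpolation. At the GI50, growth is halved.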 Active and inactive are the calls of the source. No stated cut-off is given here; in the data, active = GI50 up to about 1.1 µM and inactive = higher.
Assays:
Assay in all cases: NCI-60 cell line screen, 48 h
786-0 = system: 786-0
A549 = system: A549
EKVX = system: EKVX
HCT-15 = system: HCT-15
HL-60 = system: HL-60
M14 = system: M14
Malme-3M = system: Malme-3M
OVCAR-4 = system: OVCAR-4
SF-268 = system: SF-268
SF-295 = system: SF-295
SF-539 = system: SF-539
SNB-75 = system: SNB-75
SR = system: SR
U-251 = system: U-251
UO-31 = system: UO-31
A498 = system: A498
HOP-92 = system: HOP-92
SK-MEL-5 = system: SK-MEL-5

**Q.** `CCCCCC/C=C/CCCCCCCc1cccc(O)c1C(=O)O` was tested. Which GI50 (786-0) did it give?
**A.** > 100 µM (inactive)

**Q.** What about the GI50 (A549) of the same molecule?
**A.** 50.4 µM (inactive)

**Q.** What about the GI50 (EKVX) of the same molecule?
**A.** 32.7 µM (inactive)

**Q.** And the GI50 (HCT-15)?
**A.** 38.4 µM

**Q.** And the GI50 (HL-60)?
**A.** > 100 µM (inactive)

**Q.** What about the GI50 (M14) of the same molecule?
**A.** > 100 µM (inactive)

**Q.** What about the GI50 (Malme-3M) of the same molecule?
**A.** > 100 µM (inactive)

**Q.** What about the GI50 (OVCAR-4) of the same molecule?
**A.** > 100 µM (inactive)

**Q.** What about the GI50 (SF-268) of the same molecule?
**A.** 26.9 µM (inactive)

**Q.** What about the GI50 (SF-295) of the same molecule?
**A.** > 100 µM (inactive)

**Q.** What about the GI50 (SF-539) of the same molecule?
**A.** 59.4 µM (inactive)

**Q.** And the GI50 (SNB-75)?
**A.** > 100 µM (inactive)

**Q.** What about the GI50 (SR) of the same molecule?
**A.** > 100 µM (inactive)

**Q.** And the GI50 (U-251)?
**A.** 27.3 µM (inactive)

**Q.** And the GI50 (UO-31)?
**A.** 86.9 µM (inactive)

**Q.** For `CCOc1ccccc1NC(=O)C1=C(C)NC(C)=C(C(=O)Nc2ccccc2OCC)C1c1ccc(NC(C)=O)cc1`, which GI50 (786-0) is on record?
**A.** 29.6 µM (inactive)

**Q.** And the GI50 (A498)?
**A.** 23.8 µM (inactive)

**Q.** And the GI50 (A549)?
**A.** 46.6 µM (inactive)

**Q.** And the GI50 (EKVX)?
**A.** 38.6 µM (inactive)

**Q.** What about the GI50 (HL-60) of the same molecule?
**A.** 31.6 µM (inactive)

**Q.** What about the GI50 (HOP-92) of the same molecule?
**A.** 9.62 µM (inactive)

**Q.** What about the GI50 (M14) of the same molecule?
**A.** 29.9 µM (inactive)

**Q.** And the GI50 (Malme-3M)?
**A.** 33.7 µM (inactive)

**Q.** And the GI50 (OVCAR-4)?
**A.** 43.8 µM (inactive)

**Q.** What about the GI50 (SF-268) of the same molecule?
**A.** 56.6 µM (inactive)

**Q.** And the GI50 (SF-295)?
**A.** 13.2 µM (inactive)

**Q.** What about the GI50 (SF-539) of the same molecule?
**A.** 41.7 µM (inactive)

**Q.** What about the GI50 (SK-MEL-5) of the same molecule?
**A.** 40.7 µM (inactive)

**Q.** And the GI50 (SNB-75)?
**A.** 9.75 µM (inactive)

**Q.** What about the GI50 (U-251) of the same molecule?
**A.** 46.2 µM (inactive)

**Q.** And the GI50 (UO-31)?
**A.** 23.6 µM (inactive)

**Q.** What does the source list for `CCN(CC)CCNC(=O)c1nn(C)c(=S)[nH]c1=S`?
**A.** GI50 (786-0): > 100 µM (inactive); GI50 (A549): > 100 µM (inactive); GI50 (EKVX): > 100 µM (inactive); GI50 (HCT-15): > 100 µM; GI50 (HL-60): > 100 µM (inactive); GI50 (HOP-92): > 100 µM (inactive); GI50 (M14): > 100 µM (inactive); GI50 (Malme-3M): > 100 µM (inactive); GI50 (OVCAR-4): > 100 µM (inactive); GI50 (SF-295): > 100 µM (inactive); GI50 (SF-539): > 100 µM (inactive); GI50 (SK-MEL-5): > 100 µM (inactive); GI50 (SNB-75): > 100 µM (inactive); GI50 (SR): > 100 µM (inactive); GI50 (U-251): > 100 µM (inactive); GI50 (UO-31): > 100 µM (inactive)

**Q.** Which GI50 (786-0) does the source give for `COc1cc(CC(=O)O)c([N+](=O)[O-])cc1OC` here?
**A.** > 100 µM (inactive)

**Q.** What about the GI50 (A498) of the same molecule?
**A.** > 100 µM (inactive)

**Q.** And the GI50 (A549)?
**A.** > 100 µM (inactive)

**Q.** What about the GI50 (EKVX) of the same molecule?
**A.** > 100 µM (inactive)

**Q.** And the GI50 (HCT-15)?
**A.** > 100 µM

**Q.** And the GI50 (HL-60)?
**A.** > 100 µM (inactive)

**Q.** What about the GI50 (HOP-92) of the same molecule?
**A.** > 100 µM (inactive)

**Q.** And the GI50 (M14)?
**A.** > 100 µM (inactive)

**Q.** What about the GI50 (Malme-3M) of the same molecule?
**A.** > 100 µM (inactive)

**Q.** What about the GI50 (OVCAR-4) of the same molecule?
**A.** > 100 µM (inactive)

**Q.** And the GI50 (SF-268)?
**A.** > 100 µM (inactive)

**Q.** And the GI50 (SF-295)?
**A.** > 100 µM (inactive)

**Q.** And the GI50 (SF-539)?
**A.** > 100 µM (inactive)

**Q.** What about the GI50 (SNB-75) of the same molecule?
**A.** > 100 µM (inactive)

**Q.** And the GI50 (U-251)?
**A.** > 100 µM (inactive)

**Q.** What about the GI50 (UO-31) of the same molecule?
**A.** > 100 µM (inactive)

**Q.** How did the GI50 (786-0) turn out when `CN(C)CC/C(=N\Nc1ccc([N+](=O)[O-])cc1)c1ccccc1` was run?
**A.** 12.6 µM (inactive)

**Q.** And the GI50 (A498)?
**A.** 13.2 µM (inactive)

**Q.** And the GI50 (A549)?
**A.** 13.4 µM (inactive)

**Q.** And the GI50 (EKVX)?
**A.** 14.3 µM (inactive)

**Q.** And the GI50 (HCT-15)?
**A.** 13.6 µM

**Q.** And the GI50 (HL-60)?
**A.** 3.61 µM (inactive)

**Q.** And the GI50 (M14)?
**A.** 13.9 µM (inactive)

**Q.** What about the GI50 (Malme-3M) of the same molecule?
**A.** 19.4 µM (inactive)

**Q.** What about the GI50 (OVCAR-4) of the same molecule?
**A.** 18.3 µM (inactive)

**Q.** What about the GI50 (SF-268) of the same molecule?
**A.** 7.94 µM (inactive)

**Q.** And the GI50 (SF-295)?
**A.** 11.5 µM (inactive)

**Q.** What about the GI50 (SF-539) of the same molecule?
**A.** 7.28 µM (inactive)

**Q.** And the GI50 (SK-MEL-5)?
**A.** 14.5 µM (inactive)

**Q.** What about the GI50 (SNB-75) of the same molecule?
**A.** 4.5 µM (inactive)

**Q.** And the GI50 (SR)?
**A.** 3.5 µM (inactive)

**Q.** And the GI50 (U-251)?
**A.** 12.4 µM (inactive)

**Q.** And the GI50 (UO-31)?
**A.** 2.1 µM (inactive)

**Q.** With `N#CC(NNC(=O)c1ccccc1O)c1ccccc1` (stereo unspecified) as the molecule, how does the GI50 (786-0) read?
**A.** 2.5 µM (inactive)

**Q.** What about the GI50 (A549) of the same molecule?
**A.** 0.423 µM (active)

**Q.** What about the GI50 (HCT-15) of the same molecule?
**A.** 2.73 µM

**Q.** What about the GI50 (HL-60) of the same molecule?
**A.** 1.8 µM (inactive)

**Q.** What about the GI50 (HOP-92) of the same molecule?
**A.** 0.695 µM (active)

**Q.** What about the GI50 (M14) of the same molecule?
**A.** 0.942 µM (active)

**Q.** And the GI50 (Malme-3M)?
**A.** 4.75 µM (inactive)

**Q.** What about the GI50 (OVCAR-4) of the same molecule?
**A.** 3.85 µM (inactive)

**Q.** What about the GI50 (SF-268) of the same molecule?
**A.** 0.422 µM (active)

**Q.** And the GI50 (SF-295)?
**A.** 2.89 µM (inactive)

**Q.** And the GI50 (SF-539)?
**A.** 3.33 µM (inactive)

**Q.** What about the GI50 (SK-MEL-5) of the same molecule?
**A.** 16.1 µM (inactive)

**Q.** And the GI50 (SNB-75)?
**A.** 0.38 µM (active)

**Q.** What about the GI50 (SR) of the same molecule?
**A.** 0.689 µM (active)

**Q.** What about the GI50 (U-251) of the same molecule?
**A.** 0.486 µM (active)

**Q.** And the GI50 (UO-31)?
**A.** 0.562 µM (active)

**Q.** What does the source list for `N#Cc1c2c(c(N=P(c3ccccc3)(c3ccccc3)c3ccccc3)n3c1nc1ccccc13)CCCC2`?
**A.** GI50 (786-0): 44 µM (inactive); GI50 (A498): 20.2 µM (inactive); GI50 (A549): 21.3 µM (inactive); GI50 (EKVX): 20 µM (inactive); GI50 (HCT-15): 20.7 µM; GI50 (HL-60): 3.86 µM (inactive); GI50 (M14): 30.8 µM (inactive); GI50 (Malme-3M): 36 µM (inactive); GI50 (OVCAR-4): 23.4 µM (inactive); GI50 (SF-268): > 100 µM (inactive); GI50 (SF-295): 12.8 µM (inactive); GI50 (SF-539): 45.1 µM (inactive); GI50 (SK-MEL-5): 10.8 µM (inactive); GI50 (SNB-75): 24.5 µM (inactive); GI50 (U-251): 14.4 µM (inactive); GI50 (UO-31): 12.4 µM (inactive)

**Q.** With `O=P(Oc1ccc2ccccc2c1)(N1CC1)N1CC1` as the molecule, how does the GI50 (786-0) read?
**A.** 4.84 µM (inactive)

**Q.** And the GI50 (A498)?
**A.** 20.3 µM (inactive)

**Q.** And the GI50 (A549)?
**A.** 5.62 µM (inactive)

**Q.** What about the GI50 (EKVX) of the same molecule?
**A.** 13.6 µM (inactive)

**Q.** And the GI50 (HCT-15)?
**A.** > 100 µM

**Q.** And the GI50 (HL-60)?
**A.** 26.4 µM (inactive)

**Q.** What about the GI50 (HOP-92) of the same molecule?
**A.** 24.5 µM (inactive)

**Q.** And the GI50 (M14)?
**A.** 11.4 µM (inactive)

**Q.** And the GI50 (Malme-3M)?
**A.** 10.7 µM (inactive)

**Q.** And the GI50 (OVCAR-4)?
**A.** 89.1 µM (inactive)

**Q.** And the GI50 (SF-268)?
**A.** 2.15 µM (inactive)

**Q.** What about the GI50 (SF-295) of the same molecule?
**A.** 10.9 µM (inactive)

**Q.** What about the GI50 (SF-539) of the same molecule?
**A.** 17.6 µM (inactive)

**Q.** And the GI50 (SR)?
**A.** 3.13 µM (inactive)

**Q.** What about the GI50 (U-251) of the same molecule?
**A.** 27.6 µM (inactive)

**Q.** What about the GI50 (UO-31) of the same molecule?
**A.** 10.7 µM (inactive)

**Q.** `On1c(-c2ccccc2)c(-c2c(-c3ccccc3)n(O)c3ccccc23)c2ccccc21` was tested. Which GI50 (786-0) did it give?
**A.** 14.9 µM (inactive)

**Q.** And the GI50 (A549)?
**A.** 32.4 µM (inactive)

**Q.** What about the GI50 (HCT-15) of the same molecule?
**A.** 41 µM

**Q.** And the GI50 (HL-60)?
**A.** 32.7 µM (inactive)

**Q.** What about the GI50 (Malme-3M) of the same molecule?
**A.** 32.3 µM (inactive)

**Q.** And the GI50 (OVCAR-4)?
**A.** 52.1 µM (inactive)

**Q.** And the GI50 (SF-268)?
**A.** 55 µM (inactive)

**Q.** What about the GI50 (SF-295) of the same molecule?
**A.** 22.1 µM (inactive)

**Q.** What about the GI50 (SF-539) of the same molecule?
**A.** 24.8 µM (inactive)

**Q.** What about the GI50 (SK-MEL-5) of the same molecule?
**A.** 21.9 µM (inactive)

**Q.** And the GI50 (SNB-75)?
**A.** 27.5 µM (inactive)

**Q.** What about the GI50 (U-251) of the same molecule?
**A.** 35.5 µM (inactive)

**Q.** And the GI50 (UO-31)?
**A.** 15.5 µM (inactive)

Reference: ChEMBL document CHEMBL1201862, “PubChem BioAssay data set” (2004)
